Target: T1, ERK5 (Homo sapiens, UniProt Q13164)
T1 construct: made in house
Assay: ERK5 IMAP assay (fluorescence polarisation)
Assay type: biochemical
Details: average (e.g. geometric mean) where more than one data point; read-out: ERK5 IC50
Experimental: The assay buffer was prepared using 0.01% Tween®-20 5× stock, supplied as part of IMAP™ FP Progressive Binding System Kit (Molecular Devices R7436) and diluted to 1× using miliQ H2O. 1 μL of a 1M DTT stock was added for every 1 mL of 1× assay buffer to give a final concentration of 1 mM DTT.
ERK5 was expressed and purified at CRT-DL by Leon Pang and Sue Young. Aliquots were stored at −80° C. The ERK5 working solution was used at a […] final dilution in assay buffer. […] For 1 plate, […] of ERK5 stock was added to 2262 μL of 1× assay buffer.
To prepare the IMAP™ binding solution for one plate 20.5 μL of IMAP™ binding reagent stock, 1476 μL of 1× binding buffer A (60%), and 984 μL of binding buffer B (40%) (IMAP™ FP Progressive screening express kit (Molecular Devices R8127) was added to 9819.5 μL of milliQ H2O.
1 μL of inhibitor (in 60:40 H2O/DMSO) or 60:40 H2O/DMSO (for controls and blanks) were dry-spotted into the relevant wells of a 384-well assay plate using the MATRIX PlateMate® Plus. 5 μL of ERK5 working solution was added to test and control wells, and 5 μL of 1× assay buffer added to blanks; 4 μL of ATP/substrate working solution was added to all wells using a Matrix multichannel pipette. The plate was sealed using DMSO resistant clear seal and incubated for 2 h at 37° C. 1 μL of the kinase reaction mixture from the first plate was dry spotted into a second 384-well assay plate using the MATRIX PlateMate® Plus. 9 μL of assay buffer was added, followed by 30 μL of IMAP™ binding solution using a multichannel pipette. The plate was incubated at RT in darkness for 2 h. The assay plate was then read on an Analyst HT plate reader (Molecular Devices) using the settings described below: […]

T1 sequence (Q13164 whole entry): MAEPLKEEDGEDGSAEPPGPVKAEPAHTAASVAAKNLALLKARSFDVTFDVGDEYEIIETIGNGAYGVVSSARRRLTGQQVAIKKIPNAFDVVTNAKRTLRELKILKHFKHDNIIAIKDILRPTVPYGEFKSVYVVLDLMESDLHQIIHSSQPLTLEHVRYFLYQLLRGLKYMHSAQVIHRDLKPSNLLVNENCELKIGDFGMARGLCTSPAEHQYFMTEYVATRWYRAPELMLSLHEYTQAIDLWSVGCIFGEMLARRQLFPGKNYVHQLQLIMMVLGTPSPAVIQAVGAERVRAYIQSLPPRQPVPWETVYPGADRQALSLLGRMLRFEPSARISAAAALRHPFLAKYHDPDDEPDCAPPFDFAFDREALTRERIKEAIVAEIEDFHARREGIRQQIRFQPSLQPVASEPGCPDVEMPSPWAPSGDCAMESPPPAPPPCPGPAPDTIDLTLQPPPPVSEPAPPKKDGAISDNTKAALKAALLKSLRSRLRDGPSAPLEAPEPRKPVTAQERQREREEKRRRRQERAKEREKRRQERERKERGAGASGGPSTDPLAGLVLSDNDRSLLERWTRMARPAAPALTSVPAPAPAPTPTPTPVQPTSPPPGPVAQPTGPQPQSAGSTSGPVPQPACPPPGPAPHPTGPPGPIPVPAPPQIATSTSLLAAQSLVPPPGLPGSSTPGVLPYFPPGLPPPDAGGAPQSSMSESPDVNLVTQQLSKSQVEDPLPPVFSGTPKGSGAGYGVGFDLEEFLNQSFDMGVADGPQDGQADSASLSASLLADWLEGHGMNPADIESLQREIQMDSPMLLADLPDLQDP

IC50 [nM]	SMILES
818	O=C(Nc1ccnnc1)c1cc(C(=O)c2c(F)cccc2Br)c[nH]1 [Example 139, 4-(2-Bromo-6-fluorobenzoyl)-N-(pyridazin-4-yl)-1H-pyrrole-2-carboxamide]
7.9	COc1ccc(Cl)c(C(=O)c2c[nH]c(C(=O)Nc3ccc(CN4CCNCC4)nc3)c2)c1F [Example 251, 4-(6-Chloro-2-fluoro-3-methoxybenzoyl)-N-(6-(piperazin-1-ylmethyl)pyridin-3-yl)-1H-pyrrole-2-carboxamtde]
1080	CC(C)(C)OC(=O)N1CCC(NC(=O)c2cc(C(=O)c3c(F)cccc3Cl)c[nH]2)CC1 [Example 193, tert-Butyl 4-(4-(2-chloro-6-fluorobenzoyl)-1H-pyrrole-2-carboxamido)piperidine-1-carboxylate]
5380	CC(=O)OC1CCN(c2ncc(NC(=O)c3cc(C(=O)c4c(F)cccc4Cl)c[nH]3)cn2)CC1 [Example 21, 1-(5-(4-(2-Chloro-6-fluorobenzoyl)-1H-pyrrole-2-carboxamido)pyrimidin-2-yl)piperidin-4-yl acetate]
4130	Cc1cc(NC(=O)c2cc(C(=O)c3c(F)cccc3Cl)c[nH]2)nc(C)n1 [Example 142, 4-(2-Chloro-6-fluorobenzoyl)-N-(2,6-dimethylpyrimidin-4-yl)-1H-pyrrole-2-carboxamide]
117	COCCN(CCOC)Cc1ccc(NC(=O)c2cc(C(=O)c3c(Cl)ccc(Cl)c3F)c[nH]2)cn1 [Example 283, N-(6-((bis(2-methoxyethyl)amino)methyl)pyridin-3-yl)-4-(3,6-dichloro-2-fluorobenzoyl)-1H-pyrrole-2-carboxamide]
9660	CC(=O)OC1CCN(c2ncc(NC(=O)c3cc(C(=O)c4c(Cl)ccc(Cl)c4F)c[nH]3)cn2)CC1 [Example 22, 1-(5-(4-(3,6-Dichloro-2-fluorobenzoyl)-1H-pyrrole-2-carboxamido)pyrimidin-2-yl)piperidin-4-yl acetate]
226	O=C(Nc1cncnc1)c1cc(C(=O)c2c(F)ccc(Cl)c2F)c[nH]1 [Example 211, 4-(3-Chloro-2,6-difluorobenzoyl)-N-(pyrimidin-5-yl)-1H-pyrrole-2-carboxamide]
255	COc1ccc(F)c(C(=O)c2c[nH]c(C(=O)Nc3cccnc3)c2)c1Cl [Example 73, 4-(2-chloro-6-fluoro-3-methoxybenzoyl)-N-(pyridin-3-yl)-1H-pyrrole-2-carboxamide]
530	O=C(Nc1ccc(CO)nc1)c1cc(C(=O)c2c(F)cccc2Cl)c[nH]1 [Example 119, 4-(2-chloro-6-fluorobenzoyl)-N-(6-(hydroxymethyl)pyridin-3-yl)-1H-pyrrole-2-carboxamide]
116	CCOc1ccc(Cl)c(C(=O)c2c[nH]c(C(=O)Nc3cccnc3)c2)c1F [Example 256, 4-(6-Chloro-3-ethoxy-2-fluorobenzoyl)-N-(pyridin-3-yl)-1H-pyrrole-2-carboxamide]
16.3	COc1ccc(Cl)c(C(=O)c2c[nH]c(C(=O)Nc3cnn(Cc4ccncc4)c3)c2)c1F [Example 67]
1050	CCc1ncccc1NC(=O)c1cc(C(=O)c2c(Cl)ccc(Cl)c2F)c[nH]1 [Example 82, 4-(3,6-Dichloro-2-fluorobenzoyl)-N-(2-ethylpyridin-3-yl)-1H-pyrrole-2-carboxamide]
2310	CCOc1ccncc1NC(=O)c1cc(C(=O)c2c(F)cccc2Cl)c[nH]1 [Example 91, 4-(2-Chloro-6-fluorobenzoyl)-N-(4-ethoxypyridin-3-yl)-1H-pyrrole-2-carboxamide]
200	CN1CCC(NC(=O)c2cc(C(=O)c3c(Cl)ccc(F)c3F)c[nH]2)CC1 [Example 223, 4-(6-Chloro-2,3-difluorobenzoyl)-N-(1-methylpiperidin-4-yl)-1H-pyrrole-2-carboxamide]
5470	O=C(Nc1ccncc1)c1cc(C(=O)c2cccc(Cl)c2Cl)c[nH]1 [Example 158, 4-(2,3-Dichlorobenzoyl)-N-(pyridin-4-yl)-1H-pyrrole-2-carboxamide]
653	Cc1cc(NC(=O)c2cc(C(=O)c3c(F)cccc3Br)c[nH]2)cc(C)n1 [Example 135, 4-(2-Bromo-6-fluorobenzoyl)-N-(2,6-dimethylpyridin-4-yl)-1H-pyrrole-2-carboxamide]
5210	Cc1ccc(F)c(C(=O)c2c[nH]c(C(=O)Nc3cncnc3)c2)c1 [Example 233, 4-(2-Fluoro-5-methylbenzoyl)-N-(pyrimidin-5-yl)-1H-pyrrole-2-carboxamide]

IC50 [nM]	SMILES
283	CN1CCC(NC(=O)c2cc(C(=O)c3c(F)ccc(Cl)c3Cl)c[nH]2)CC1 [Example 171, 4-(2,3-Dichloro-6-fluorobenzoyl)-N-(1-methylpiperidin-4-yl)-1H-pyrrole-2-carboxamide]
2570	Cc1cccc(F)c1C(=O)c1c[nH]c(C(=O)Nc2cccnc2)c1 [Example 186, 4-(2-Fluoro-6-methylbenzoyl)-N-(pyridin-3-yl)-1H-pyrrole-2-carboxamide]
8230	CN1CCC(NC(=O)c2cc(C(=O)c3c(F)cccc3C3CC3)c[nH]2)CC1 [Example 204, 4-(2-Cyclopropyl-6-fluorobenzoyl)-N-(1-methylpiperidin-4-yl)-1H-pyrrole-2-carboxamide]
653	COCCOc1ccc(Cl)c(C(=O)c2c[nH]c(C(=O)Nc3cccnc3)c2)c1F [Example 258, 4-(6-Chloro-2-fluoro-3-(2-methoxyelhoxy)benzoyl)-N-(pyridin-3-yl)-1H-pyrrole-2-carboxamide]
173	COc1ccc(F)c(C(=O)c2c[nH]c(C(=O)NC3CCN(C)CC3)c2)c1Cl [Example 71, 4-(2-chloro-6-fluoro-3-methoxybenzoyl)-N-(1-methylpiperidin-4-yl)-1H-pyrrole-2-carboxamide]
1740	O=C(Nc1cccnc1)c1cc(C(=O)c2c(Cl)ccc(OC3CCOCC3)c2F)c[nH]1 [Example 267, 4-(6-Chloro-2-fluoro-3-((tetrahydro-2H-pyran-4-yl)oxy)benzoyl)-N-(pyridin-3-yl)-1H-pyrrole-2-carboxamide]
521	O=C(NC1CCN(C(=O)C(F)(F)F)CC1)c1cc(C(=O)c2c(Cl)ccc(Cl)c2F)c[nH]1 [Example 11, 4-(3,6-Dichloro-2-fluorobenzoyl)-N-(1-(2,2,2-trifluoroacetyl)piperidin-4-yl)-1H-pyrrole-2-carboxamide]
1660	O=C(NC1CCNCC1)c1cc(C(=O)c2cc(Cl)ccc2F)c[nH]1 [Example 230, 4-(5-Chloro-2-fluorobenzoyl)-N-(piperidin-4-yl)-1H-pyrrole-2-carboxamide]
1180	Cc1ccc(F)c(C(=O)c2c[nH]c(C(=O)Nc3cncnc3)c2)c1Cl [Example 176, 4-(2-Chloro-6-fluoro-3-methylbenzoyl)-N-(pyrimidin-5-yl)-1H-pyrrole-2-carboxamide]
1940	CN1CCC(NC(=O)c2cc(C(=O)c3cc(Cl)ccc3F)c[nH]2)CC1 [Example 231, 4-(5-Chloro-2-fluorobenzoyl)-N-(1-methylpiperidin-4-yl)-1H-pyrrole-2-carboxamide]
2380	O=C(Nc1cccnc1)c1cc(C(=O)c2cc(Cl)ccc2F)c[nH]1 [Example 228, 4-(5-Chloro-2-fluorobenzoyl)-N-(pyridin-3-yl)-1H-pyrrole-2-carboxamide]
8560	O=C(NC1CCNCC1)c1cc(C(=O)c2cc(F)ccc2F)c[nH]1 [Example 226, 4-(2,5-Difluorobenzoyl)-N-(piperidin-4-yl)-1H-pyrrole-2-carboxamide]
537	O=C(Nc1cnc(N2CCC(O)CC2)nc1)c1cc(C(=O)c2c(Cl)ccc(Cl)c2F)c[nH]1 [Example 29, 4-(3,6-Dichloro-2-fluorobenzoyl)-N-(2-(4-hydroxypiperidin-1-yl)pyrimidin-5-yl)-1H-pyrrole-2-carboxamide]
292	O=C(NC1CCNCC1)c1cc(C(=O)c2c(F)ccc(Cl)c2F)c[nH]1 [Example 212, 4-(3-Chloro-2,6-difluorobenzoyl)-N-(piperidin-4-yl)-1H-pyrrole-2-carboxamide]
6160	CN1CCC(NC(=O)c2cc(C(=O)c3cc(F)ccc3F)c[nH]2)CC1 [Example 227, 4-(2,5-Difluorobenzoyl)-N-(1-methylpiperidin-4-yl)-1H-pyrrole-2-carboxamide]
657	CC(C)N1CCC(NC(=O)c2cc(C(=O)c3c(F)cccc3Cl)c[nH]2)CC1 [Example 1, 4-(2-Chloro-6-fluorobenzoyl)-N-(1-isopropylpiperidin-4-yl)-1H-pyrrole-2-carboxamide]
2140	O=C(Nc1ccncn1)c1cc(C(=O)c2c(F)cccc2F)c[nH]1 [Example 130, 4-(2,6-Difluorobenzoyl)-N-(pyrimidin-4-yl)-1H-pyrrole-2-carboxamide]
483	O=C(Nc1cccnc1)c1cc(C(=O)c2c(Cl)ccc(OC3CCOC3)c2F)c[nH]1 (stereo not drawn) [Example 259, 4-(6-Chloro-2-fluoro-3-((tetrahydrofuran-3-yl)oxy)benzoyl)-N-(pyridin-3-yl)-1H-pyrrole-2-carboxamide]
